3 molecules from US8816135B2, “Trisphenol compound” (Honshu Chemical Industry Co., Ltd., priority 2009, dated 2014) can be followed below.

Data set [1] is described as follows: Measurement of glass transition temperature by differential scanning calorimeter. It is filed as physicochemical. As to conditions: DSC, melted compound cooled and heated again, 10.0° C./min. As to the method:
Each compound was heated to a temperature 20° C. higher than the melting point of the compound in crystal form using a differential scanning calorimeter, and the melted compound was cooled and then heated again to measure the glass transition point. The measurement conditions were 40° C. as the temperature at which to start measurement, the melting point+20° C. as the temperature at which to end measurement, and 10.0° C./min. as the rate of heating.
Background: Differential scanning calorimetry records heat flow against a reference as temperature is scanned.

The nature of data set [2]: Measurement of solubility in solvent (propyleneglycolmonomethylether acetate). The settings on record: 28° C., largest amount that dissolved completely, added in 1 g steps to 10 g of solvent.
Procedure: As for solubility, 10 g of propyleneglycolmonomethylether acetate was put in a container and 1 g of trisphenol compound was added while keeping the temperature at 28° C., and the mixture was agitated for 10 minutes to check for complete dissolution of the compound. […] The solubility (amount in grams per 100 g of solvent) was calculated from the largest amount of compound in grams that dissolved completely.

What is called melting point is the temperature of the solid-liquid transition. On to `Cc1cc(C(C)(c2ccc(-c3ccc(O)cc3)cc2)c2cc(C)c(O)c(C)c2)cc(C)c1O` [Example 3, 1-[4-(4-hydroxyphenyl)phenyl]-1,1-bis(4-hydroxy-3,5-dimethylphenyl)ethane], for which the melting point was determined as 231 °C. Besides, the Glass transition temperature in data set [1] turned out to be 104 °C. In addition, the Solubility in data set [2] is on record as 10 g/100 g of propyleneglycolmonomethylether acetate.
`CC(C)(c1ccc(O)cc1)c1ccc(C(C)(c2ccc(O)cc2)c2ccc(O)cc2)cc1` [Comparative Example, 1-[α-methyl-α-(4-hydroxyphenyl)ethyl]-4-[α,α-bis(4-hydroxyphenyl)ethyl]benzene, reference compound] had a Glass transition temperature in data set [1] of 96 °C.
`CC(c1ccc(O)cc1)(c1ccc(O)cc1)c1ccc(-c2ccc(O)cc2)cc1` [Example 1, 1-[4-(4-hydroxyphenyl)phenyl]-1,1-bis(4-hydroxyphenyl)ethane] had a melting point of 198 °C. Moreover, in data set [2], the Solubility is 40 g/100 g of propyleneglycolmonomethylether acetate.
